Laboratory results published in patent publication US12365668B2, “Aminopyrazine diol compounds as PI3K-y inhibitors” (Incyte Corporation, priority 2018, dated 2025).
Read-outs that look alike come from different tables or passages of the source.

How the values were obtained:
[1] = tested on: Phosphorylated Ribosomal Protein S6 (RPS6) in THP-1 cells; test: THP-1 RPS6 ELISA Assay; type: cell-based, Human; conditions: serum starved, 2 hours compound, 10 nM MCP-1 for 15 minutes, Phospho-RPS6 ELISA, read-out: PI3Kγ_THP1_RPS6_ELISA IC50
Description: Example A. THP-1 RPS6 ELISA Assay
To measure the Phosphorylated Ribosomal Protein S6 (RPS6) in cell lysates, THP-1 cells (Human Acute Monocytic Leukemia) are purchased from ATCC (Manassas, VA) and maintained in RPMI with 10% FBS (Gibco/Life Technologies, Carlsbad, CA). For the assay, THP-1 cells are serum starved overnight in RPMI, then plated in RPMI (2×10^5 cells/well in 90 μL) into 96-well flat-bottom tissue culture treated plates (Corning, Corning, NY), in the presence or absence of a concentration range of test compounds. Covered plates are incubated for 2 hours at 37° C., 5% CO2 then treated with or without 10 nM MCP-1(MYBioSource, San Diego, CA) for 15 minutes at 37° C., 5% CO2. Plates are centrifuged at 1600 RPM and supernatants are removed. Cells are lysed in Lysis Buffer (Cell Signaling, Danvers, MA) with Protease Inhibitor (Calbiochem/EMD, Germany), PMSF (Sigma, St Louis MO), HALTS (Thermo Fisher, Rockford, IL) for 30 min on wet ice. Cell lysates are frozen at −80° C. before testing. The lysates are tested in the Human/Mouse/Rat Phospho-RPS6 ELISA (R&D Systems, Inc. Minn, MN). The plate is measured using a microplate reader (SpectraMax M5—Molecular Devices, LLC Sunnyvale, CA) set to 450 nm with a wavelength correction of 540. IC50 determination is performed by fitting the curve of inhibitor percent inhibition versus the log of the inhibitor concentration using the GraphPad Prism 5.0 software.

[2] = biological target: PI3Kγ (p110γ) Recombinant Human Protein (Homo sapiens (Human), UniProt P48736); test: PI3K-γ Scintillation Proximity Assay; type: biochemical; conditions: 20 μM PIP2, 2 μM ATP, SPA
From the text: Example B. PI3K-γ Scintillation Proximity Assay Materials: [γ-^33P]ATP (10 mCi/mL) and Wheat Germ Agglutinin (WGA) YSi SPA Scintillation Beads was purchased from Perkin Elmer (Waltham, MA). Lipid kinase substrate, D-myo-Phosphatidylinositol 4,5-bisphosphate (PtdIns(4,5)P2)D (+)-sn-1,2-di-O-octanoylglyceryl, 3-O-phospho linked (PIP2), CAS 204858-53-7, was purchased from Echelon Biosciences (Salt Lake City, UT). PI3Kγ (p110γ) Recombinant Human Protein was purchased from Life technology (Grand Island, NY). ATP, MgCl2, DTT, EDTA, MOPS and CHAPS were purchased from Sigma Aldrich (St. Louis, MO). The kinase reaction was conducted in polystyrene 384-well Greiner Bio-one white plate from Thermo Fisher Scientific in a final volume of 25 μL. Inhibitors were first diluted serially in DMSO and added to the plate wells before the addition of other reaction components. The final concentration of DMSO in the assay was 2%. The PI3Kγ assay was carried out at room temperature in 20 mM MOPS, pH 6.7, 10 mM MgCl2, 5 mM DTT and CHAPS 0.03%. Reactions were initiated by the addition of ATP, the final reaction mixture consisted of 20 μM PIP2, 2 μM ATP, 0.5 μCi [γ-^33P] ATP, 13 nM PI3Kγ. Reactions were incubated for 120 min and terminated by the addition of 40 μL SPA beads suspended in quench buffer: 163 mM potassium phosphate pH 7.8, 20% glycerol, 25 mM EDTA. The final concentration of SPA beads is 1.0 mg/mL. After the plate sealing, plates were shaken overnight at room temperature and centrifuged at 1500 rpm for 10 min, the radioactivity of the product was determined by scintillation counting on Topcount (Perkin-Elmer). IC50 determination was performed by fitting the curve of percent of the solvent control activity versus the log of the inhibitor concentration using the GraphPad Prism 6.0 software.

[3] = biological target: PI3Kδ (p110δ/p85α) Recombinant Human Protein (Homo sapiens (Human), UniProt O00329); test: PI3Kδ Scintillation Proximity Assay; type: biochemical; conditions: 20 μM PIP2, 2 μM ATP, SPA
From the text: Example C. PI3Kδ Scintillation Proximity Assay Materials: [γ-^33P]ATP (10 mCi/mL) and Wheat Germ Agglutinin (WGA) YSi SPA Scintillation Beads was purchased from Perkin Elmer (Waltham, MA). Lipid kinase substrate, D-myo-Phosphatidylinositol 4,5-bisphosphate (PtdIns(4,5)P2)D (+)-sn-1,2-di-O-octanoylglyceryl, 3-O-phospho linked (PIP2), CAS 204858-53-7, was purchased from Echelon Biosciences (Salt Lake City, UT). PI3Kδ (p110δ/p85α) Recombinant Human Protein was purchased from Eurofins (St Charles, MO). ATP, MgCl2, DTT, EDTA, MOPS and CHAPS were purchased from Sigma Aldrich (St. Louis, MO). The kinase reaction was conducted in polystyrene 384-well Greiner Bio-one white plate from Thermo Fisher Scientific in a final volume of 25 μL. Inhibitors were first diluted serially in DMSO and added to the plate wells before the addition of other reaction components. The final concentration of DMSO in the assay was 2%. The PI3Kδ assay was carried out at room temperature in 20 mM MOPS, pH 6.7, 10 mM MgCl2, 5 mM DTT and CHAPS 0.03%. Reactions were initiated by the addition of ATP, the final reaction mixture consisted of 20 μM PIP2, 2 μM ATP, 0.5 μCi [γ-^33P] ATP, 3.4 nM PI3Kδ. Reactions were incubated for 120 min and terminated by the addition of 40 μL SPA beads suspended in quench buffer: 163 mM potassium phosphate pH 7.8, 20% glycerol, 25 mM EDTA. The final concentration of SPA beads is 1.0 mg/mL. After the plate sealing, plates were shaken overnight at room temperature and centrifuged at 1500 rpm for 10 min, the radioactivity of the product was determined by scintillation counting on Topcount (PerkinElmer). IC50 determination was performed by fitting the curve of percent of the solvent control activity versus the log of the inhibitor concentration using the GraphPad Prism 6.0 software.

Sequence of PI3Kδ (p110δ/p85α) Recombinant Human Protein (O00329 whole entry): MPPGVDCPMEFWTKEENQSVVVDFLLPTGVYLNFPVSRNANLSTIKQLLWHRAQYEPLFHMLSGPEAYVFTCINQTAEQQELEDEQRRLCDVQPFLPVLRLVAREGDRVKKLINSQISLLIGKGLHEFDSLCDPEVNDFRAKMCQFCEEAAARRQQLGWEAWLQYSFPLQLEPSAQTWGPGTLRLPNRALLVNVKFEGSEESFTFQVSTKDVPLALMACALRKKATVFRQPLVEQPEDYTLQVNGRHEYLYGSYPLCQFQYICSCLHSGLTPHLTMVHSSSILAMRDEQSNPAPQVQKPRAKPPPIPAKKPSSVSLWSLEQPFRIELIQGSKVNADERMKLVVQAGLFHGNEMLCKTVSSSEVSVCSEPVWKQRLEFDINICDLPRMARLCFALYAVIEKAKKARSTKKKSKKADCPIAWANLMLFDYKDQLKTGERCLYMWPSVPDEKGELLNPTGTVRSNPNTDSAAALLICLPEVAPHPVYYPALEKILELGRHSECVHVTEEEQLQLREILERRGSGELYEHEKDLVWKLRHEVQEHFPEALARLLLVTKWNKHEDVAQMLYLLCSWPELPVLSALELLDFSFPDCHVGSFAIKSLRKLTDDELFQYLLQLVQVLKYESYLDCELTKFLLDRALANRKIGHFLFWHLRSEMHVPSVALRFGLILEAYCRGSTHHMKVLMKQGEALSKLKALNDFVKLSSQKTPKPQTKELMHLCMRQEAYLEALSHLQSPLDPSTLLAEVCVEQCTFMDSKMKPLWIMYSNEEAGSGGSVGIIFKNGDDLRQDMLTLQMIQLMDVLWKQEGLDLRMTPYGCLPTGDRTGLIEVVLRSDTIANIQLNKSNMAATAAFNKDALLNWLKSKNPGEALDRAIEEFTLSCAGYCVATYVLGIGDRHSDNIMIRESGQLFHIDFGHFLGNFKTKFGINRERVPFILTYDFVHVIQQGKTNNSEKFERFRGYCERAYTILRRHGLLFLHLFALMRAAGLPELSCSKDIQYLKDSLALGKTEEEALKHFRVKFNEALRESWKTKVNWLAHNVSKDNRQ
Sequence of PI3Kδ (p110δ/p85α) Recombinant Human Protein (P27986 whole entry partner): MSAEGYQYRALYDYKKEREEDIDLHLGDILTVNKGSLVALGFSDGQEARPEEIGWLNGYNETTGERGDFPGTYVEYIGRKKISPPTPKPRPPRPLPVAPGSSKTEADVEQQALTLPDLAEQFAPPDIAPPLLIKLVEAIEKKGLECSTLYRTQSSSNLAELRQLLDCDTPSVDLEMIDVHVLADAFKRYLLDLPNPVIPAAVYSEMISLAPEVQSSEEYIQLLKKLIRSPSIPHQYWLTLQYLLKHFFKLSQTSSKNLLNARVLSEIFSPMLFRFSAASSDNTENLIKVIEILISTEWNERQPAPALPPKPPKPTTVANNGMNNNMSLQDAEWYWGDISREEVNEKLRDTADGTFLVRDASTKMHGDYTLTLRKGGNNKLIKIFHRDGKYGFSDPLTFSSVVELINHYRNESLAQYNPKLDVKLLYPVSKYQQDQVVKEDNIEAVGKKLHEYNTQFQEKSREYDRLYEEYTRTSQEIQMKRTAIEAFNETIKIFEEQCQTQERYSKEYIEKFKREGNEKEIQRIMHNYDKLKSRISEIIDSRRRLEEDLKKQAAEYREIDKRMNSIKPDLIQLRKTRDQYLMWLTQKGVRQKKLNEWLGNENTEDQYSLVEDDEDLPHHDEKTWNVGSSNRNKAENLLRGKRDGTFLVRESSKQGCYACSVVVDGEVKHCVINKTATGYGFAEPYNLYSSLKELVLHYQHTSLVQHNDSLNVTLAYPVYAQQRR
Sequence of PI3Kγ (p110γ) Recombinant Human Protein (P48736 whole entry): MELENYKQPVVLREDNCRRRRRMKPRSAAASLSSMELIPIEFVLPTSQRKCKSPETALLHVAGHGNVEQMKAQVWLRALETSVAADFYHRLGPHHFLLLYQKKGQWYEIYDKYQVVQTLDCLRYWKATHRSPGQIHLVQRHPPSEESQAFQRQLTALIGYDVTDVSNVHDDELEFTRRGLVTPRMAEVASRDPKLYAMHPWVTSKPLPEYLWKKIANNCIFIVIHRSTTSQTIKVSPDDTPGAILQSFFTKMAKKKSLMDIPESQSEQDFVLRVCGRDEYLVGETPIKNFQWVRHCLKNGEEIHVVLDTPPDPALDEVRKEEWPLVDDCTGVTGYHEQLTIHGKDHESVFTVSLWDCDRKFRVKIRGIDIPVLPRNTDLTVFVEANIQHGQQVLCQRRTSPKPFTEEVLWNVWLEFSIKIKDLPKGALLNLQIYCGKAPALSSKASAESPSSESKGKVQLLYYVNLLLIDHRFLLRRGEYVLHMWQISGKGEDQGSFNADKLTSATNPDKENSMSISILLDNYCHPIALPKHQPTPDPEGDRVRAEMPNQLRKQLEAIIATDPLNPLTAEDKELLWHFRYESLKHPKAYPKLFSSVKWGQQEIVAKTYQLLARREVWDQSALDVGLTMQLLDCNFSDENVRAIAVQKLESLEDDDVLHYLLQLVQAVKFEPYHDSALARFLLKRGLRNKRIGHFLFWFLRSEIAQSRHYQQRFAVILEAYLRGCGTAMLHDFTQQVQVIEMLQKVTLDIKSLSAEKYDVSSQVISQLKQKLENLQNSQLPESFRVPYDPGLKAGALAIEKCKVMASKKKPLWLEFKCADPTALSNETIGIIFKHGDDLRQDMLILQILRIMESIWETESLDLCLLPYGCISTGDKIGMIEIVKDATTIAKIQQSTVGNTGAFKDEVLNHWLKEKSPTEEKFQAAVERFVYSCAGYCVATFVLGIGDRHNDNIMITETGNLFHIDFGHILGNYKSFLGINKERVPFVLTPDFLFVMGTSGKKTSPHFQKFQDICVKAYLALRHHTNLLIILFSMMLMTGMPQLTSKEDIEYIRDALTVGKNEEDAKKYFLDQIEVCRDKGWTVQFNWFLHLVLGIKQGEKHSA

Row | IC50 ([1]; Homo sapiens) | SMILES | IC50 [2] | IC50 [3] | IC50 [1]
1 | 100 to 500 nM | Cc1ccc(C(O)(CO)C(F)(F)F)cc1-c1cnc(N)c(-n2cncn2)n1 (single isomer, unassigned) [Example 15, 2-(3-(5-Amino-6-(1H-1,2,4-triazol-1-yl)pyrazin-2-yl)-4-methylphenyl)-3,3,3-trifluoropropane-1,2-diol] | ≤ 100 nM | ≤ 100 nM | –
2 | – | Cc1ccc([C@](O)(CO)C(F)F)cc1-c1cnc(N)c(C(=O)N2CCC[C@@H]2CO)n1 [Example 45, (3-Amino-6-(5-((S)-1,1-difluoro-2,3-dihydroxypropan-2-yl)-2-methylphenyl)pyrazin-2-yl)((R)-2-(hydroxymethyl)pyrrolidin-1-yl)methanone] | – | 500 to 2000 nM | 100 to 500 nM
3 | – | Cc1ccc(C(O)(CO)C(F)(F)F)cc1-c1cnc(N)c(-n2nccn2)n1 (centres unmarked) [Example 14, 2-(3-(5-Amino-6-(1H-1,2,3-triazol-2-yl)pyrazin-2-yl)-4-methylphenyl)-3,3,3-trifluoropropane-1,2-diol] | ≤ 100 nM | ≤ 100 nM | < 100 nM
